According to patent publication US7855166B2, “Sulfonylamino(thio)carbonyl compounds” (Bayer Cropscience GmbH, priority 2005, dated 2010):

How the values were obtained:
[1] = tested on: weed plants such as Sinapis alba, Echinochloa crus-galli, Lolium multiflorum, Chrysanthemum segetum, Setaria viridis, Abutilon theophrasti, Amaranthus …; test: Post-emergence effect on weeds (greenhouse pot test, visual scoring); type: in vivo; conditions: applied post-emergence (three-leaf stage) at a rate of 0.3 kg or less of active substance per hectare; scored after about 3 to 4 weeks in comparison to untreated controls
[2] = tested on: weed plants such as Sinapis alba, Chrysanthemum segetum, Avena sativa, Stellaria media, Echinochloa crus-galli, Lolium multiflorum, Setaria viridis, Abutilon …; test: Pre-emergence effect on weeds (greenhouse pot test, visual scoring); type: in vivo; conditions: applied pre-emergence at a rate of 0.3 kg or less of active substance per hectare; scored after 3 to 4 weeks in comparison to untreated controls

## COc1nn(C(=O)NS(=O)(=O)c2ccccc2I)c(=O)n1C [Compound 1.001]
[1]
  herbicidal action against weed plants (effect scored visually): very good herbicidal action
[2]
  herbicidal action against weed plants (visual scoring of plant damage or emergence damage): very good herbidical action

## CCOc1nn(C(=O)NS(=O)(=O)c2ccccc2I)c(=O)n1C [Compound 1.004]
[1]
  herbicidal action against weed plants (effect scored visually): very good herbicidal action
[2]
  herbicidal action against weed plants (visual scoring of plant damage or emergence damage): very good herbidical action

## CCCOc1nn(C(=O)NS(=O)(=O)c2ccccc2I)c(=O)n1C [Compound 1.005]
[1]
  herbicidal action against weed plants (effect scored visually): very good herbicidal action
[2]
  herbicidal action against weed plants (visual scoring of plant damage or emergence damage): very good herbidical action

## COc1nn(C(=O)NS(=O)(=O)c2ccccc2I)c(=O)n1C1CC1 [Compound 1.008]
[1]
  herbicidal action against weed plants (effect scored visually): very good herbicidal action
[2]
  herbicidal action against weed plants (visual scoring of plant damage or emergence damage): very good herbidical action

## CCOc1nn(C(=O)NS(=O)(=O)c2ccccc2I)c(=O)n1C1CC1 [Compound 1.011]
[1]
  herbicidal action against weed plants (effect scored visually): very good herbicidal action
[2]
  herbicidal action against weed plants (visual scoring of plant damage or emergence damage): very good herbidical action

## CCCOc1nn(C(=O)NS(=O)(=O)c2ccccc2I)c(=O)n1C1CC1 [Compound 1.014]
[1]
  herbicidal action against weed plants (effect scored visually): very good herbicidal action
[2]
  herbicidal action against weed plants (visual scoring of plant damage or emergence damage): very good herbidical action

## COc1nn(C(=O)NS(=O)(=O)c2c(F)cccc2I)c(=O)n1C [Compound 1.021]
[1]
  herbicidal action against weed plants (effect scored visually): very good herbicidal action
[2]
  herbicidal action against weed plants (visual scoring of plant damage or emergence damage): very good herbidical action

## CCOc1nn(C(=O)NS(=O)(=O)c2c(F)cccc2I)c(=O)n1C [Compound 1.022]
[1]
  herbicidal action against weed plants (effect scored visually): very good herbicidal action
[2]
  herbicidal action against weed plants (visual scoring of plant damage or emergence damage): very good herbidical action

## CCCOc1nn(C(=O)NS(=O)(=O)c2c(F)cccc2I)c(=O)n1C [Compound 1.023]
[1]
  herbicidal action against weed plants (effect scored visually): very good herbicidal action
[2]
  herbicidal action against weed plants (visual scoring of plant damage or emergence damage): very good herbidical action

## CC(C)Oc1nn(C(=O)NS(=O)(=O)c2c(F)cccc2I)c(=O)n1C [Compound 1.024]
[1]
  herbicidal action against weed plants (effect scored visually): very good herbicidal action
[2]
  herbicidal action against weed plants (visual scoring of plant damage or emergence damage): very good herbidical action

## CCOc1nn(C(=O)NS(=O)(=O)c2c(F)cccc2I)c(=O)n1C1CC1 [Compound 1.027]
[1]
  herbicidal action against weed plants (effect scored visually): very good herbicidal action
[2]
  herbicidal action against weed plants (visual scoring of plant damage or emergence damage): very good herbidical action

## CCCOc1nn(C(=O)NS(=O)(=O)c2c(F)cccc2I)c(=O)n1C1CC1 [Compound 1.028]
[1]
  herbicidal action against weed plants (effect scored visually): very good herbicidal action
[2]
  herbicidal action against weed plants (visual scoring of plant damage or emergence damage): very good herbidical action

## COc1nn(C(=O)NS(=O)(=O)c2c(C)cccc2I)c(=O)n1C [Compound 1.037]
[1]
  herbicidal action against weed plants (effect scored visually): very good herbicidal action
[2]
  herbicidal action against weed plants (visual scoring of plant damage or emergence damage): very good herbidical action

## CCOc1nn(C(=O)NS(=O)(=O)c2c(C)cccc2I)c(=O)n1C [Compound 1.038]
[1]
  herbicidal action against weed plants (effect scored visually): very good herbicidal action
[2]
  herbicidal action against weed plants (visual scoring of plant damage or emergence damage): very good herbidical action

## CCCOc1nn(C(=O)NS(=O)(=O)c2c(C)cccc2I)c(=O)n1C [Compound 1.039]
[1]
  herbicidal action against weed plants (effect scored visually): very good herbicidal action
[2]
  herbicidal action against weed plants (visual scoring of plant damage or emergence damage): very good herbidical action

## Cc1cccc(I)c1S(=O)(=O)NC(=O)n1nc(OC(C)C)n(C)c1=O [Compound 1.040]
[1]
  herbicidal action against weed plants (effect scored visually): very good herbicidal action
[2]
  herbicidal action against weed plants (visual scoring of plant damage or emergence damage): very good herbidical action

## COc1nn(C(=O)NS(=O)(=O)c2c(C)cccc2I)c(=O)n1C1CC1 [Compound 1.042]
[1]
  herbicidal action against weed plants (effect scored visually): very good herbicidal action
[2]
  herbicidal action against weed plants (visual scoring of plant damage or emergence damage): very good herbidical action

## CCCOc1nn(C(=O)NS(=O)(=O)c2c(C)cccc2I)c(=O)n1C1CC1 [Compound 1.044]
[1]
  herbicidal action against weed plants (effect scored visually): very good herbicidal action
[2]
  herbicidal action against weed plants (visual scoring of plant damage or emergence damage): very good herbidical action

## COc1nn(C(=O)NS(=O)(=O)c2c(I)cccc2C(F)(F)F)c(=O)n1C [Compound 1.133]
[1]
  herbicidal action against weed plants (effect scored visually): very good herbicidal action
[2]
  herbicidal action against weed plants (visual scoring of plant damage or emergence damage): very good herbidical action

## CCOc1nn(C(=O)NS(=O)(=O)c2c(I)cccc2C(F)(F)F)c(=O)n1C [Compound 1.136]
[1]
  herbicidal action against weed plants (effect scored visually): very good herbicidal action
[2]
  herbicidal action against weed plants (visual scoring of plant damage or emergence damage): very good herbidical action

## CCCOc1nn(C(=O)NS(=O)(=O)c2c(I)cccc2C(F)(F)F)c(=O)n1C [Compound 1.137]
[1]
  herbicidal action against weed plants (effect scored visually): very good herbicidal action
[2]
  herbicidal action against weed plants (visual scoring of plant damage or emergence damage): very good herbidical action

## CC(C)Oc1nn(C(=O)NS(=O)(=O)c2c(I)cccc2C(F)(F)F)c(=O)n1C [Compound 1.138]
[1]
  herbicidal action against weed plants (effect scored visually): very good herbicidal action
[2]
  herbicidal action against weed plants (visual scoring of plant damage or emergence damage): very good herbidical action

## COc1nn(C(=O)NS(=O)(=O)c2c(I)cccc2C(F)(F)F)c(=O)n1C1CC1 [Compound 1.140]
[1]
  herbicidal action against weed plants (effect scored visually): very good herbicidal action
[2]
  herbicidal action against weed plants (visual scoring of plant damage or emergence damage): very good herbidical action

## CCOc1nn(C(=O)NS(=O)(=O)c2c(I)cccc2C(F)(F)F)c(=O)n1C1CC1 [Compound 1.143]
[1]
  herbicidal action against weed plants (effect scored visually): very good herbicidal action
[2]
  herbicidal action against weed plants (visual scoring of plant damage or emergence damage): very good herbidical action

## CCOc1nn(C(=O)NS(=O)(=O)c2c(I)cccc2OC)c(=O)n1C1CC1 [Compound 1.191, 4-Cyclopropyl-3-ethoxy-N-[(2-iodo-6-methoxyphenyl)sulfonyl]-5-oxo-4,5-dihydro-1H-1,2,4-triazole-1-carboxamide]
[1]
  herbicidal action against weed plants (effect scored visually): very good herbicidal action
[2]
  herbicidal action against weed plants (visual scoring of plant damage or emergence damage): very good herbidical action

## CCOc1nn(C(=O)NS(=O)(=O)c2c(I)cccc2OC)c(=O)n1C [Compound 1.194]
[1]
  herbicidal action against weed plants (effect scored visually): very good herbicidal action
[2]
  herbicidal action against weed plants (visual scoring of plant damage or emergence damage): very good herbidical action

## CCCOc1nn(C(=O)NS(=O)(=O)c2c(I)cccc2OC)c(=O)n1C [Compound 1.195]
[1]
  herbicidal action against weed plants (effect scored visually): very good herbicidal action
[2]
  herbicidal action against weed plants (visual scoring of plant damage or emergence damage): very good herbidical action

## COc1cccc(I)c1S(=O)(=O)NC(=O)n1nc(OC(C)C)n(C)c1=O [Compound 1.196]
[1]
  herbicidal action against weed plants (effect scored visually): very good herbicidal action
[2]
  herbicidal action against weed plants (visual scoring of plant damage or emergence damage): very good herbidical action

## CCSc1nn(C(=O)NS(=O)(=O)c2c(I)cccc2OC)c(=O)n1C [Compound 1.197]
[1]
  herbicidal action against weed plants (effect scored visually): very good herbicidal action
[2]
  herbicidal action against weed plants (visual scoring of plant damage or emergence damage): very good herbidical action

## COc1cccc(I)c1S(=O)(=O)NC(=O)n1nc(OC)n(C2CC2)c1=O [Compound 1.198]
[1]
  herbicidal action against weed plants (effect scored visually): very good herbicidal action
[2]
  herbicidal action against weed plants (visual scoring of plant damage or emergence damage): very good herbidical action

## CCCOc1nn(C(=O)NS(=O)(=O)c2c(I)cccc2OC)c(=O)n1C1CC1 [Compound 1.204]
[1]
  herbicidal action against weed plants (effect scored visually): very good herbicidal action
[2]
  herbicidal action against weed plants (visual scoring of plant damage or emergence damage): very good herbidical action

## CCOc1cccc(I)c1S(=O)(=O)NC(=O)n1nc(OC)n(C)c1=O [Compound 1.211]
[1]
  herbicidal action against weed plants (effect scored visually): very good herbicidal action
[2]
  herbicidal action against weed plants (visual scoring of plant damage or emergence damage): very good herbidical action

## CCOc1cccc(I)c1S(=O)(=O)NC(=O)n1nc(OCC)n(C)c1=O [Compound 1.214]
[1]
  herbicidal action against weed plants (effect scored visually): very good herbicidal action
[2]
  herbicidal action against weed plants (visual scoring of plant damage or emergence damage): very good herbidical action

## CCCOc1nn(C(=O)NS(=O)(=O)c2c(I)cccc2OCC)c(=O)n1C [Compound 1.215]
[1]
  herbicidal action against weed plants (effect scored visually): very good herbicidal action
[2]
  herbicidal action against weed plants (visual scoring of plant damage or emergence damage): very good herbidical action

## CCOc1cccc(I)c1S(=O)(=O)NC(=O)n1nc(OC)n(C2CC2)c1=O [Compound 1.218]
[1]
  herbicidal action against weed plants (effect scored visually): very good herbicidal action
[2]
  herbicidal action against weed plants (visual scoring of plant damage or emergence damage): very good herbidical action

## CCOc1cccc(I)c1S(=O)(=O)NC(=O)n1nc(OCC)n(C2CC2)c1=O [Compound 1.221]
[1]
  herbicidal action against weed plants (effect scored visually): very good herbicidal action
[2]
  herbicidal action against weed plants (visual scoring of plant damage or emergence damage): very good herbidical action

## CCCOc1cccc(I)c1S(=O)(=O)NC(=O)n1nc(OC)n(C)c1=O [Compound 1.231]
[1]
  herbicidal action against weed plants (effect scored visually): very good herbicidal action
[2]
  herbicidal action against weed plants (visual scoring of plant damage or emergence damage): very good herbidical action

## CCCOc1cccc(I)c1S(=O)(=O)NC(=O)n1nc(OCCC)n(C)c1=O [Compound 1.235]
[1]
  herbicidal action against weed plants (effect scored visually): very good herbicidal action
[2]
  herbicidal action against weed plants (visual scoring of plant damage or emergence damage): very good herbidical action

## CCCOc1cccc(I)c1S(=O)(=O)NC(=O)n1nc(OC(C)C)n(C)c1=O [Compound 1.236]
[1]
  herbicidal action against weed plants (effect scored visually): very good herbicidal action
[2]
  herbicidal action against weed plants (visual scoring of plant damage or emergence damage): very good herbidical action
